{
  "source": "PubChem BioAssay AID504686",
  "about": "(National Center for Advancing Translational Sciences (NCATS), 2011)",
  "system": "Caco-2 monolayer A->B permeability, LC-MS/MS, 90 min",
  "assay": "Inhibitors of Human alpha-Glucosidase: Caco-2 Cell Permeability Profiling",
  "conditions": "hits give high values",
  "description": "Alpha-glucosidase is responsible for the hydrolysis of terminal, non-reducing 1,4-linked alpha-D-glucose residues, which releases alpha-D-glucose. It is a lysosomal hydrolase that is required for the degradation of a small percentage (1-3%) of cellular glycogen in humans. Deficiency of this enzyme results in glycogen-storage disease type II (GSDII), also referred to as Pompe disease, an autosomal recessive disorder. Structurally normal glycogen is accumulated in the lysosomes and cytoplasm in affected patients, primarily in muscle tissues. Excessive glycogen storage within lysosomes may interrupt normal functioning of other organelles and leads to cellular injury. In turn, this leads to enlargement and dysfunction of the entire organ involved (eg: cardiomyopathy and muscle weakness). This bioassays provides profiling data on Caco-2 cell permeability of leads compounds developed for the alpha-Glucosidase project. This in vitro model is often predictive of in vivo absorption of the compound across the intestinal lining by using a Caco2-cell line and measuring the compound's rate of transport […]. NIH Chemical Genomics Center [NCGC] NIH Molecular Libraries Probe Production Centers Network [MLPCN] […]\n1. […] The T0, LY and T90, LY plates are read by FlexStation 3 at excitation of 485 nm and emission of 535 nm to determine LY permeability. […]",
  "data": [
    {"smiles": "CC(=O)c1ccc(N2CCN(S(=O)(=O)c3ccc4c(c3)CC(=O)N4)CC2)cc1", "values": [
      {"measurement": "Papp A->B", "value": "21.3 10^-6 cm/s"}
    ]}
  ]
}
